Results taken from US10682371B2, “Small molecule conjugates specifically activated in tumor microenvironment for targeting and use thereof” (priority 2014, dated 2020).
Read-outs that look alike come from different tables or passages of the source.

Assays:
4T1 cells = test: BALB/C mice model for tumor metastasis (4T1, lung metastases); type: in vivo; conditions: IV every three days for 4 times, Paclitaxel 4 mg/kg
Experimental: (§1) 1) 4T1 cells were purchased from American type culture collection (ATCC) and identified according the specification provided by ATCC. Cells were cultivated in DMEM culture solution containing 10% fetal bovine serum at 37° C. and 5% CO2. The cells were passaged for every three days and cells within the 15th passage were used.
2) Production of tumor metastasis. 10^6 […] were subcutaneously injected to the back of the BALB/C mice. Mice were randomly grouped after the tumor grew to about 1.5 cm. The subcutaneous tumor was removed by surgery and drug treatment began. Mice were killed after anesthesia on day 27. The whole lung was taken out and put into Bouin's solution for staining. The number of the tumor metastasized to lung was counted with anatomical microscope.
(§2) The control group was administered by physiological saline. Drugs were administered once for every three days for 4 times.
as §2
According to the clinical application of B1, B2, B3 and B4, drugs were intravenously injected (IV). […] The control group was administered by physiological saline. Drugs were administered once for every three days for 4 times.
According to the clinical application of D1, D2, D3 and D4, drugs were intravenously injected (IV). […] The control group was administered by physiological saline. Drugs were administered once for every three days for 4 times.

[1] = system: Human prostate cancer PC-3 cells / Panc-1 cells; test: Tumor treatment in nude mice (PC-3 cells purchased, Panc-1 cells injected; Examples 22, 32, 42); type: in vivo; conditions: nude mice, IV once weekly for four weeks, Paclitaxel 8 mg/kg
Experimental: as §1, with “Human prostate cancer PC-3” for “4T1”
2) Production of tumor. 5×10^6Panc-1 cells were subcutaneously injected to the back of the nude mice. Mice were randomly grouped after the tumor reached at least 100 mm^3. Then treatment began and the day on which the treatment began was day 1.
The control group was administered by physiological saline. Drugs were administered once weekly for four weeks.
According to the clinical application of B1, B2, B3 and B4, drugs were intravenously injected (IV). […] The control group was administered by physiological saline. Drugs were administered once weekly for four weeks.

tumor CD8+ T cells = type: in vivo, C57 mice; conditions: CD8 positive cells in CD45 positive cells of tumor
Experimental: (§3) 4) Analysis on tumor CD8+ T cells. The tumor tissue was homogenated and individual cells in the tumor were filtered, separated and washed by buffer twice, then cultivated with the leucocyte common antigen CD45-PE and CD8-FITC marked antibodies for 1 hour at ambient temperature. The cells were washed by phosphate buffer containing 1% fetal bovine serum twice and then analyzed for the ratio of the T lymphocyte antigen (CD8) positive cells in the leucocyte common antigen (CD45) positive cells by flow cytometry.
as §3, with “CD45-PE and T-lymphocyte antigen CD8-FITC marked” for “CD45-PE and CD8-FITC marked”, “flow cytometry. Increasement of the ratio indicates increased T lymphocyte cells and thus the animal immunity against the tumor was improved.” for “flow cytometry.”
as §3, with “cytometry. Increasement of the ratio indicates increased T lymphocyte cells and thus the animal immunity against the tumor was improved.” for “cytometry.”

[2] = system: tumor-derived immunosuppressive T cells (T reg: CD4+, CD25+, Foxp3+); CD8 T cells; test: Immunological stimulation test in mice receiving tumor treatment (T reg, CD8 T cells); type: in vivo; conditions: mice receiving tumor treatment
Excerpt: We further studied the immunological stimulation property of Legutaxel. […] On the contrary, the index for tumor-derived immunosuppressive T cells in treatment group by Legutaxel decreased due to targeted chemotherapy (see panels in FIGS. 3A and 3B).

D121 lung tumor cells = type: in vivo, C57 mice; conditions: drugs weekly for 4 weeks
Experimental: 1) D121 lung tumor cells were purchased from ATCC. Cells were cultivated in DMEM culture solution containing 10% fetal bovine serum at 37° C. and 5% CO2. The cells were passaged for every three days and cells within the 15th passage were used.
(§4) 2) Tumor immunization. 5×10^5 D121 lung cancer cells (purchased from ATCC) which were killed by irradiation were intraperitoneally injected to mice. The mice were injected for 3 times, once every two weeks. After immunization, mice were injected with tumor cells and the drugs were administered weekly for 4 weeks.
3) Production of tumor. At day 32, 10^6 live lung tumor cells were subcutaneously injected to the back of the C57 mice immunized by tumor. Treatment began when the tumor grew to 0.3-0.4 cm.
as §4, with “4 weeks. In table 16 below the immune group was immuned with D121 lung tumor cells and the group without dead D121 lung tumor cells was injected with physiological saline as controls.” for “4 weeks.”
3) Production of tumor. After immunization (4 weeks later), 10^6 live lung tumor cells were subcutaneously injected to the back of the C57 mice immunized by tumor. Treatment began when the tumor grew to 0.3-0.4 cm. Tumor size (mm^3) were noted and tumor inhibition rates were calculated.
as §4, with “4 weeks. In the table below the immune group was immuned with D121 lung tumor cells and the group without dead D121 lung tumor cells was injected with physiological saline as controls.” for “4 weeks.”
3) Production of tumor. At day 32, 10^6 live D121 lung tumor cells were subcutaneously injected to the back of the C57 mice immunized by tumor. Treatment began when the tumor grew to 0.3-0.4 cm.
1) D121 lung tumor cells were purposed from ATCC. Cells were cultivated in DMEM culture solution containing 10% fetal bovine serum at 37° C. and 5% CO2. The cells were passaged for every three days and cells within the 15th passage were used.

[3] = 4T1, BALB/C mice, lung, day 27, S1′-S4′ 12 mg/kg
[4] = Table 28, BALB/C mice, 4T1, lung metastases day 27, A1-A4 12 mg/kg
[5] = Table 26, A1-A4 24 mg/kg, Day 10
[6] = D121 immunized C57 mice, Day 18 (Example 23)

Paclitaxel [reference compound]
Inhibitory rate on metastasis (4T1 cells; [3]): 5.9% | Number of metastasized tumor (4T1 cells; [3]): 128 ± 25 | Inhibitory rate on metastasis (4T1 cells; [4]): 6.8% | Number of metastasized tumor (4T1 cells; [4]): 137 ± 32 | Size of tumor (mm^3) Day 10 [1, 5]: 123.04 ± 125.3 mm^3 | inhibitory rate on tumor Day 10 [1, 5]: 58.3% | Size of tumor (mm^3) Day 24 ([1]; Table 26, A1-A4 24 mg/kg): 252.49 ± 248.5 mm^3 | inhibitory rate on tumor Day 24 ([1]; Table 26, A1-A4 24 mg/kg): 33.7% | inhibitory rate on tumor Day 10 ([1]; S1′-S4′ 24 mg/kg, Day 10): 7.5% | Size of tumor (mm^3) Day 24 ([1]; S1′-S4′ 24 mg/kg): 249.54 ± 95.46 mm^3 | inhibitory rate on tumor Day 24 ([1]; S1′-S4′ 24 mg/kg): 27.9% | CD8: CD45 (%) (tumor CD8+ T cells; D121 immunized C57 mice (Example 23)): 6.6% | CD8: CD45 (%) (tumor CD8+ T cells; Table 27, flow cytometry, immunized C57 mice, D121): 5.7% | Index for tumor-derived immunosuppressive T cells (T reg: CD4+, CD25+, Foxp3+) [2]: greatly increased | Size of tumor (mm^3) Day 18 (D121 lung tumor cells; [6]): 1210.28 ± 375.46 mm^3 | inhibitory rate on tumor % Day 18 (D121 lung tumor cells; [6]): 23.1% | inhibitory rate on tumor % Day 18 (D121 lung tumor cells; Table 27, immunized C57 mice, D121 lung tumor, Day 18): 20.47%
